Laboratory results published in US20150259371A1, “METHODS AND COMPOUNDS FOR INHIBITING GLYCOSYLTRANSFERASES” (SIMON FRASER UNIVERSITY, priority 2010, published 2015).
Entries after “also recorded” stand apart in the source; their conditions may differ. Structures can show the parent of a compound that is named as a salt.

What was measured:
OGT [1] = target: T1, OGT (Homo sapiens, UniProt O15294); experiment: OGT transfer: UDP-sugar as donor, nup62 acceptor, UDP production by CE; assay type: biochemical
T1 construct: made in house
Description: Capillary electrophoresis (CE): CE was performed on a ProteomeLab PA800 (Beckman-Coulter) using fused silica capillaries of […]×44 cm (to detector). The running buffer was 40 mM Na2B4O7 (Sigma), pH 9.5, containing 1.0% (wv) polyethylene glycol (MW 20,000; Fluka) and filtered prior to use. The capillary was conditioned by washing with 1 N NaOH (2 min, 20 psi), 18 MΩ H2O (3 min, 20 psi) and running buffer (5 min, 40 psi). After injecting a short (15 nL) H2O plug, samples were electrostatically introduced and pre-concentrated at the anode by applying a potential of -0.5 kV for 10 s according to the field-amplified sample injection technique described by Chien and Burgi^39. […] Electropherograms were derived by measuring the absorbance at 254 (+/−10) nm at a rate of 4 Hz. […]
OGT transfer: The ability of OGT (which was over-expressed and purified as described in Ref. ^40) to transfer UDP-5SGlcNAc was tested using recombinant nup62 as the acceptor. […] Production of UDP was monitored at 254 nm; the concentration was determined from a standard curve of UDP standards, which were prepared in triplicate using the same procedure as the reactions, at a concentration of between […] Controls in the absence of nup62 were subtracted to account for OGT-catalyzed hydrolysis of the UDP-sugars.

[2] = system: sialyl-Lewis X (sLeX) expression in HepG2 cells; experiment: Immunoblot and lectin blot of HepG2 lysates; assay type: cell-based, human
Description: More specifically, monolayers of Hep G2 cells were grown to about 75% confluency in DMEM containing 10% FBS before they were switched to serum free media for 10 h. FBS-free conditions were utilized to limit the amount of fucose which could be made available to cells upon degradation of serum glycoproteins. Cells were subsequently exposed to peracetylated 5-thio-L-fucose (5-T-Fuc) in serum free media for 48 h after which the media were collected, gently centrifuged (800 rpm, 10 min, 4° C.) to remove dead cells, and concentrated (˜10-fold) by centrifugal filration (Amicon, NMWCO 3000 daltons). Cells were washed with cold PBS prior to harvesting them in PBS+0.5% SDS. Proteins were solubilised upon sonication (2 blasts, 10 sec, 15% power) and protein concentrations were determined for all samples by the DC protein concentration assay (BioRad). Samples were normalized prior to analysis. Identical amounts of proteins were analyzed for all lectin-blotting experiments. Cell extracts and conditioned media containing secreted proteins were all analyzed on 8% polyacrylamide gels (FIG. 10).
Monolayers of HepG2 cells were exposed to 50 μM 5-T-Fuc for varying lengths of time before they were harvested as described above. When necessary, fresh media and inhibitors were added after 24 h. Alternatively, cells were exposed to 5-T-Fuc for 24 h after which the media was replaced and cells were harvested at the indicated time-points (FIG. 11).

[3] = system: core (α1,6)-fucosylation in CHO K1 cells; experiment: Aleura aurantia lectin blot of CHO K1 cells; assay type: cell-based; conditions: CHO K1, 48 h
[4] = system: anti-O-GlcNAc antibody CTD110.6; experiment: Blocking of anti-O-GlcNAc antibody binding to modified nup62; conditions: 0-3 mM
Description: Blocking antibody interactions: Recombinantly modified nup62 was run on a gel and transferred onto nitrocellulose membrane. CTD110.6 at the appropriate dilution was incubated with 0-3 mM Me-GlcNAc or Me-5SGlcNAc for 1 h prior to applying to the membrane overnight at 4° C. The standard procedure for western blots was subsequently followed.

OGT [5] = target: T1, OGT; conditions: literature refs 40, 53; read-out: Km of natural substrate for OGT; cited from earlier work

T1 sequence (O15294 whole entry): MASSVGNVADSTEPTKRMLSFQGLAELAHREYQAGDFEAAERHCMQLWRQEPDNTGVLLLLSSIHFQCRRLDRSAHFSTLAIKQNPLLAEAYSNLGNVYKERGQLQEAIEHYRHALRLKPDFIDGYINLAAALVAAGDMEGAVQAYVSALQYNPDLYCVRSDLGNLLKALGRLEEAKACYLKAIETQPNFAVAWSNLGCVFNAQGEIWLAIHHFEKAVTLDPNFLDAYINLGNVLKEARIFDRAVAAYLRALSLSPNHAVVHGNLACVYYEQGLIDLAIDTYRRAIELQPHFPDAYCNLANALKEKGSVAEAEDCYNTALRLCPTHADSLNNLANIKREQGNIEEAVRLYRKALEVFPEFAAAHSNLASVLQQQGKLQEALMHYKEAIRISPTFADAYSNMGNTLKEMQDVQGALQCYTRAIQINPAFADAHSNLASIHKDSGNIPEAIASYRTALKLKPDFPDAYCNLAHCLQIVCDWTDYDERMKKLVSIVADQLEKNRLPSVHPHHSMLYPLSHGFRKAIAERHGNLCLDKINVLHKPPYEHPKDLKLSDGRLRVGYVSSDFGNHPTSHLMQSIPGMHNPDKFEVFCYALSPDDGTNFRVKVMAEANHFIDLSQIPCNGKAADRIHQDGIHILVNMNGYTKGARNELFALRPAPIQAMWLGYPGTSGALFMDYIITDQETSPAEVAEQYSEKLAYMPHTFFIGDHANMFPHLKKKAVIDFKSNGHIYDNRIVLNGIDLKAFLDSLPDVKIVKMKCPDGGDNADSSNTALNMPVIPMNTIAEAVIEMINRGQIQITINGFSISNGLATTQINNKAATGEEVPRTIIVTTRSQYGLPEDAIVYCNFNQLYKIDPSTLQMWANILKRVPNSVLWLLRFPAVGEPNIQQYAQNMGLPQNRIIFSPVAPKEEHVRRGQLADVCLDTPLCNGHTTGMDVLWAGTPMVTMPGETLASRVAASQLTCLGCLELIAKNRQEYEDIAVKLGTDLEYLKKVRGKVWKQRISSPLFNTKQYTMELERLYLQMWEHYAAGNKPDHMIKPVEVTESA

Compound: CC(=O)N[C@@H]1[C@@H](O)[C@H](O)[C@@H](CO)S[C@@H]1OP(=O)(O)OP(=O)(O)OC[C@H]1O[C@@H](n2ccc(=O)[nH]c2=O)[C@H](O)[C@@H]1O [UDP-5SGlcNAc, 5′-(2-acetamido-2-deoxy-5-thio-a-D-glucopyranosyl)diphosphate triethylammonium salt]
- fold worse donor substrate for OGT as compared to UDP-GlcNAc (OGT [1]): approximately 14 fold

Compound: C[C@H](S)[C@@H](O)[C@@H](O)[C@H](O)C=O [Compound 5-T-Fuc, 5-thiofucose]
- sLeX expression, time course ([2]; HepG2, 50 μM): reduces sLeX expression in a time-dependant fashion
- Aleura aurantia lectin reactivity ([2]; HepG2, 48 h): no decrease in Aleura aurantia lectin reactivity was observed
- Maackia amurensis lectin binding ([2]; HepG2, 48 h): dose-dependent increase in Maackia amurensis lectin binding
- time to full recovery of sLeX expression after exposure ([2]; HepG2, after a 24 h exposure): ≤ 24 h
- sLeX expression, dose response ([2]; HepG2, serum free media, 48 h, anti-CD15s): significant, dose-dependent decrease in sLe^X expression; also recorded: reduces sialyl-lewis X expression in HepG2 liver cells
- core-fucosylated antigens by Aleura aurantia lectin [3]: no further decrease in lectin reactivity was observed above inhibitor concentrations of 5 μM; also recorded: reduction in core (α1,6)-fucosylation

Compound: CO[C@H]1S[C@H](CO)[C@@H](O)[C@H](O)[C@H]1NC(C)=O [Compound 16, Methyl 2-acetamido-2-deoxy-5-thio-a-D-glucopyranoside]
- blocking of CTD110.6 binding [4]: blocks binding almost as well as Me-GlcNAc

Compound: uridine diphospho-N-acetylglucosamine [UDP-GlcNAc]
- Km (OGT [5]): 2 to 7 µM
